Assay results: patent US20210221848A1, “POLYMYXIN DERIVATIVES AND THEIR USE IN COMBINATION THERAPY TOGETHER WITH DIFFERENT ANTIBIOTICS” (priority 2014, published 2021)
Like-named read-outs stand apart in the source and are kept apart here.

Key:
[1] = tested on: K. pneumoniae
[2] = tested on: Acinetobacter baumannii NCTC 13301; details: mouse thigh, 16 h model
[3] = tested on: P. aeruginosa strains with elevated MICs to Polymyxin B; experiment: MIC against strains with elevated MICs to Polymyxin B; format: cell-based, Pseudomonas aeruginosa; details: Table 6D
Method in brief: (§1)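 Polymyxin B-resistant isolates were inoculated from 0.5 McFarland suspensions of 18-24 hour Mueller-Hinton agar colonies. Testing was done twice per compound, and results disagreeing by over 2-fold were discarded as non-valid. For compounds assayed several times, the modal MIC is given.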

[4] = tested on: P. aeruginosa; experiment: MIC in 1:1 (wt:wt) combination with Rifampicin; format: cell-based, Pseudomonas aeruginosa; details: 1:1 (wt:wt) with Rifampicin, total drug concentration
Protocol: (§2) The inoculum was prepared by making a direct suspension of isolated colonies (selected from an 18-24 hour Mueller-Hinton agar plate) adjusted to the 0.5 McFarland standard. […] The assays were performed in duplicate. […] In cases where the duplicate values varied by less than 2-fold, the lower of the two values is reported. If a variation of greater than 2-fold was observed, the assay was considered non-valid. Several of the compounds were subjected to multiple tests, and where this is the case, the MIC reflects the modal value obtained.
(§3) MIC values (microgram/mL) refer to the total drug concentration (i.e. test agent plus Rifampicin).

[5] = tested on: E. coli; experiment: MIC in 1:1 (wt:wt) combination with Rifampicin; format: cell-based, Escherichia coli; details: 1:1 (wt:wt) with Rifampicin, total drug concentration
Protocol: as §2, §3

[6] = tested on: A. baumannii
[7] = tested on: K. pneumoniae; experiment: MIC in 1:1 (wt:wt) combination with Rifampicin; format: cell-based, Klebsiella pneumoniae; details: 1:1 (wt:wt) with Rifampicin, total drug concentration
Protocol: as §2, §3

[8] = tested on: Acinetobacter baumannii NCTC 13301; details: for Mean log10 CFU reduction vs. control: mouse lungs, A. baumannii NCTC 13301, SC at 2, 6 and 10 h post-infection, 16 h infection model
Protocol: On Day 0, animals were infected with 0.04 mL inoculum by intranasal instillation into mouse nostrils and were kept in an upright position on a string rack for ˜10 min post-infection. […] The vehicle control group (7 mice) was treated with 0.9% saline for injection at 2, 6 and 10 h post-infection.
Sixteen hours after infection, the mice were euthanized humanely. The lungs of each animal were harvested, homogenized and quantitatively cultured onto CLED agar for CFU determination. Decrease of the total CFU compared to control counts at 16 h post-infection was determined for each dose group.

[9] = tested on: A. baumannii; experiment: MIC in 1:1 (wt:wt) combination with Rifampicin; format: cell-based, Acinetobacter baumannii; details: 1:1 (wt:wt) with Rifampicin, total drug concentration
Protocol: as §2, §3

[10] = tested on: E. coli strains with elevated MICs to Polymyxin B; experiment: MIC against strains with elevated MICs to Polymyxin B; format: cell-based, Escherichia coli; details: Table 6D
Method in brief: as §1

[11] = tested on: P. aeruginosa
[12] = tested on: K. pneumoniae strains with elevated MICs to Polymyxin B; experiment: MIC against strains with elevated MICs to Polymyxin B; format: cell-based, Klebsiella pneumoniae; details: Table 6D
Method in brief: as §1

[13] = tested on: A. baumanii strains with elevated MICs to Polymyxin B; experiment: as above; format: cell-based, Acinetobacter baumannii; details: Table 6D
Method in brief: as §1

[14] = tested on: E. coli
[15] = tested on: HK-2 cell line; experiment: In vitro renal cell toxicity assay (resazurin reduction)
Protocol: MICs were determined as described herein. HK-2 cell IC50 values were determined as described herein. Values are reported relative to Polymyxin B.

[16] = tested on: A. baumannii; experiment: MIC in the presence of […] of rifampicin; format: cell-based, Acinetobacter baumannii
Protocol: as §2

[17] = tested on: E. coli; experiment: MIC in the presence of a fixed concentration (2 μg/mL) of Rifampicin; format: cell-based, Escherichia coli; details: Rifampicin 2 μg/mL, Table 5D
[18] = tested on: K. pneumoniae; experiment: as above; format: cell-based, Klebsiella pneumoniae; details: Rifampicin 2 μg/mL, Table 5D
Protocol: as §2

[19] = absence of a second agent, Table 6B

(trans-5-(isobutyl- piperidine)-3- carbonyl L-Thr-L- Dap-polymyxin B heptapeptide [Example D65]
MIC, K. pneumoniae ATCC 4352 ([1]; sole activity, Table 6C): 0.03 micrograms/mL
MIC, K. pneumoniae ATCC BAA-2146 ([1]; sole activity, Table 6C): 0.125 micrograms/mL
Mean log10 CFU reduction vs. control ([2]; 0.215 mg/kg/dose free base SC at 2, 6 and 10 h post-infection): 0.71 log10 CFU
Mean log10 CFU reduction vs. control ([2]; 0.86 mg/kg/dose free base SC at 2, 6 and 10 h post-infection): 2.40 log10 CFU
Mean log10 CFU reduction vs. control ([2]; 2.6 mg/kg/dose free base SC at 2, 6 and 10 h post-infection): 5.42 log10 CFU
Mean log10 CFU reduction vs. control ([2]; 8.6 mg/kg/dose free base SC at 2, 6 and 10 h post-infection): 6.05 log10 CFU
Mean log10 CFU reduction vs. control ([2]; 17.2 mg/kg/dose free base SC at 2, 6 and 10 h post-infection): 6.59 log10 CFU
MIC P. aeruginosa 065 ([3]; strain 065, elevated MIC to Polymyxin B): 2 micrograms/mL
MIC P. aeruginosa 066 ([3]; strain 066, elevated MIC to Polymyxin B): 1 micrograms/mL
MIC P. aeruginosa 067 ([3]; strain 067, elevated MIC to Polymyxin B): 64 micrograms/mL
MIC in 1:1 combination with rifampicin, P. aeruginosa 063 ([4]; P. aeruginosa 063): 16 microgram/mL
MIC in 1:1 combination with rifampicin, P. aeruginosa 068 ([4]; P. aeruginosa 068): 1 microgram/mL
MIC in 1:1 combination with rifampicin, E. coli 058 ([5]; E. coli 058): ≤0.5 microgram/mL
MIC in 1:1 combination with rifampicin, E. coli 059 ([5]; E. coli 059): ≤0.5 microgram/mL
MIC in 1:1 combination with rifampicin, E. coli 060 ([5]; E. coli 060): ≤0.5 microgram/mL
MIC in 1:1 combination with rifampicin, E. coli ATCC 25922 ([5]; E. coli ATCC 25922): ≤0.5 microgram/mL
MIC, A. baumannii ATCC BAA-747 ([6]; sole activity, Table 6C): 0.06 micrograms/mL
MIC, A. baumannii NCTC 13424 ([6]; sole activity, Table 6C): 0.125 micrograms/mL
MIC in 1:1 combination with rifampicin, K. pneumoniae 062 ([7]; K. pneumoniae 062): 1 microgram/mL
MIC in 1:1 combination with rifampicin, K. pneumoniae CCUG 59348 ([7]; K. pneumoniae CCUG 59348): 1 microgram/mL
efficacy compared with polymyxin B ([8]; mouse lung, all doses (2.6, 8.6, 17.2 and 25.8 mg/kg free base), SC at 2, 6 and 10 h, 16 h): greater efficacy than observed with the equivalent dose of polymyxin B
Mean log10 CFU reduction vs. control ([8]; 2.6 mg/kg/dose free base): 1.07 log10 CFU
Mean log10 CFU reduction vs. control ([8]; 8.6 mg/kg/dose free base): 1.91 log10 CFU
Mean log10 CFU reduction vs. control ([8]; 17.2 mg/kg/dose free base): 2.89 log10 CFU
Mean log10 CFU reduction vs. control ([8]; 25.8 mg/kg/dose free base): 8.15 log10 CFU
MIC in 1:1 combination with rifampicin, A. baumannii 053 ([9]; A. baumannii 053): ≤0.5 microgram/mL
MIC in 1:1 combination with rifampicin, A. baumannii 056 ([9]; A. baumannii 056): ≤0.5 microgram/mL
MIC E. coli 058 ([10]; strain 058, elevated MIC to Polymyxin B): 1 micrograms/mL
MIC E. coli 059 ([10]; strain 059, elevated MIC to Polymyxin B): 2 micrograms/mL
MIC E. coli 060 ([10]; strain 060, elevated MIC to Polymyxin B): 1 micrograms/mL
MIC E. coli 061 ([10]; strain 061, elevated MIC to Polymyxin B): 2 micrograms/mL
MIC, P. aeruginosa ATCC 27853 ([11]; sole activity, Table 6C): 0.25 micrograms/mL
MIC, P. aeruginosa CCUG 59347 ([11]; sole activity, Table 6C): 0.25 micrograms/mL
MIC K. pneumoniae 062 ([12]; strain 062, elevated MIC to Polymyxin B): 32 micrograms/mL
MIC K. pneumoniae 063 ([12]; strain 063, elevated MIC to Polymyxin B): 8 micrograms/mL
MIC K. pneumoniae 064 ([12]; strain 064, elevated MIC to Polymyxin B): 2 micrograms/mL
MIC K. pneumoniae 655 ([12]; strain 655, elevated MIC to Polymyxin B): 4 micrograms/mL
MIC A. baumannii 053 ([13]; strain 053, elevated MIC to Polymyxin B): 16 micrograms/mL
MIC A. baumannii 056 ([13]; strain 056, elevated MIC to Polymyxin B): 1 micrograms/mL
MIC A. baumannii 068 ([13]; strain 068, elevated MIC to Polymyxin B): 2 micrograms/mL
MIC A. baumannii 070 ([13]; strain 070, elevated MIC to Polymyxin B): 4 micrograms/mL
MIC, E. coli ATCC 25922 ([14]; sole activity, Table 6C): 0.03 micrograms/mL
MIC, E. coli NCTC 13441 ([14]; sole activity, Table 6C): 0.06 micrograms/mL

3-Amino-2- benzylpropanoylpoly- myxin B nonapeptide [Example D5]
MIC, K. pneumoniae ATCC 4352 [1, 19]: 8 micrograms/mL
MIC, K. pneumoniae ATCC BAA-2146 [1, 19]: >8 micrograms/mL
MIC, A. baumannii ATCC BAA-747 [6, 19]: >8 micrograms/mL
MIC, A. baumannii NCTC 13424 [6, 19]: >8 micrograms/mL
HK-2 IC50 rel to PMB [15]: 15.3
MIC in combination with Rifampicin, A. baumannii ATCC BAA-747 ([16]; A. baumannii ATCC BAA-747, Table 5D): 0.25 micrograms/mL
MIC in combination with Rifampicin, A. baumannii NCTC 13424 ([16]; A. baumannii NCTC 13424, Table 5D): ≤0.015 micrograms/mL
MIC, P. aeruginosa ATCC 27853 [11, 19]: 1 micrograms/mL
MIC, P. aeruginosa CCUG 59347 [11, 19]: >8 micrograms/mL
MIC in combination with Rifampicin, E. coli ATCC 25922 ([17]; E. coli ATCC 25922): 0.03 micrograms/mL
MIC in combination with Rifampicin, E. coli NCTC 13441 ([17]; E. coli NCTC 13441): 0.06 micrograms/mL
MIC in combination with Rifampicin, K. pneumoniae ATCC 4352 ([18]; K. pneumoniae ATCC 4352): 0.03 micrograms/mL
MIC in combination with Rifampicin, K. pneumoniae ATCC BAA-2146 ([18]; K. pneumoniae ATCC BAA-2146): 0.25 micrograms/mL
MIC, E. coli ATCC 25922 [14, 19]: 8 micrograms/mL
MIC, E. coli NCTC 13441 [14, 19]: >8 micrograms/mL
